Converted amounts (≈) assume the structure as drawn. Blank lines part the entries; values can stand above or below the compound they belong to.
What was measured:
Assay in all cases: ≥ marks a high value that may be exact or a test limit, other limits are often not marked, values filed in µg/mL are converted to µM
Pseudomonas putida = test system: Pseudomonas putida
Escherichia coli = test system: Escherichia coli
Bacillus subtilis = test system: Bacillus subtilis
Staphylococcus aureus = test system: Staphylococcus aureus
Streptococcus mutans = test system: Streptococcus mutans
Cryptococcus neoformans = test system: Cryptococcus neoformans
Salmonella typhimurium = test system: Salmonella typhimurium
Serratia sp. = test system: Serratia sp.
Candida albicans = test system: Candida albicans
Saccharomyces cerevisiae = test system: Saccharomyces cerevisiae
[1] = test system: Bacillus subtilis IFO 3143
[2] = test system: Staphylococcus aureus IFO 12732
[3] = test system: Pseudomonas aeruginosa IFO 12582
[4] = test system: Escherichia coli IFO 12734
[5] = test system: Klebsiella pneumoniae 913
[6] = test system: Enterobacter cloacae 6780
[7] = test system: Escherichia coli ATCC 25922
Escherichia coli 4530 = test system: Escherichia coli 4530
Escherichia coli 170 = test system: Escherichia coli 170
Acinetobacter baumannii = test system: Acinetobacter baumannii
[8] = test system: Klebsiella pneumoniae 1625
[9] = test system: Enterobacter cloacae 2524
[10] = test system: Pseudomonas aeruginosa 4677
[11] = test system: Pseudomonas aeruginosa ATCC 27853
[12] = test system: Staphylococcus aureus ATCC 25923
Escherichia coli 117 = test system: Escherichia coli 117
[13] = test system: Candida albicans ATCC 90028
Escherichia coli 37 = test system: Escherichia coli 37
Pseudomonas aeruginosa = test system: Pseudomonas aeruginosa
Staphylococcus aureus 10 = test system: Staphylococcus aureus 10
[14] = test system: Candida albicans ATCC 2002
Staphylococcus aureus 37 = test system: Staphylococcus aureus 37
[15] = test system: Klebsiella pneumoniae ATCC 700603
[16] = test system: Pseudomonas aeruginosa CMCCB 1010
[17] = test system: Enterococcus faecalis ATCC 29212
Proteus vulgaris = test system: Proteus vulgaris
[18] = test system: Bacillus subtilis KCTC 1918
[19] = test system: Bacillus megaterium KCTC 1096
[20] = test system: Pseudomonas aeruginosa KCTC 1637
[21] = test system: Escherichia coli KCTC 1682
[22] = test system: Staphylococcus aureus KCTC 1621
[23] = test system: Salmonella typhimurium KCTC 1926
[24] = test system: Streptococcus pyogenes KCTC 3096

SMILES: CC[C@H](C)[C@H](NC(=O)[C@H](CO)NC(=O)[C@H](CCCCN)NC(=O)[C@H](Cc1ccccc1)NC(=O)[C@H](CCCCN)NC(=O)[C@H](CCCCN)NC(=O)[C@H](CC(C)C)NC(=O)[C@@H]1CCCN1C(=O)[C@@H](NC(=O)[C@H](CCCCN)NC(=O)[C@@H](NC(=O)[C@@H](NC(=O)[C@H](C)N)C(C)C)C(C)C)C(C)C)C(=O)N[C@@H](CCCN=C(N)N)C(=O)N[C@@H](CCC(=O)O)C(=O)O [AVVKVPLKKFKSIRE]
MIC (Pseudomonas putida): ≥ 57.4 µM | MIC (Escherichia coli): 28.7 µM (≈ 50 µg/mL) | MIC (Bacillus subtilis): 11.5 µM (≈ 20 µg/mL) | MIC (Staphylococcus aureus): 28.7 µM (≈ 50 µg/mL) | MIC (Streptococcus mutans): 17.2 µM (≈ 30 µg/mL) | MIC (Cryptococcus neoformans): 23 µM (≈ 40 µg/mL) | MIC (Salmonella typhimurium): 17.2 µM (≈ 30 µg/mL) | MIC (Serratia sp.): 28.7 µM (≈ 50 µg/mL) | MIC (Candida albicans): 57.4 µM (≈ 100 µg/mL) | MIC (Saccharomyces cerevisiae): 5.74 µM (≈ 10 µg/mL)

SMILES: CC[C@H](C)[C@H](N)C(=O)N[C@@H](CC(N)=O)C(=O)N[C@@H](CC(C)C)C(=O)N[C@@H](CCCCN)C(=O)N[C@@H](C)C(=O)N[C@H](C(=O)N[C@@H](C)C(=O)N[C@@H](C)C(=O)N[C@@H](CC(C)C)C(=O)N[C@@H](C)C(=O)N[C@@H](CCCN=C(N)N)C(=O)N[C@@H](CC(N)=O)C(=O)N[C@@H](Cc1ccc(O)cc1)C(=O)O)[C@@H](C)CC [INLKAIAALARNY]
MIC [11]: 55.9 µM (≈ 80 µg/mL) | MIC [12]: 6.99 µM (≈ 10 µg/mL) | MIC (Escherichia coli 117): 28 µM (≈ 40 µg/mL) | MIC [13]: 14 µM (≈ 20 µg/mL) | MIC (Escherichia coli 37): ≥ 55.9 µM | MIC (Pseudomonas aeruginosa): 6.99 µM (≈ 10 µg/mL) | MIC (Staphylococcus aureus 10): 28 µM (≈ 40 µg/mL) | MIC [14]: ≥ 55.9 µM | MIC (Staphylococcus aureus 37): 6.99 µM (≈ 10 µg/mL) | MIC [15]: 55.9 µM (≈ 80 µg/mL) | MIC [16]: ≥ 55.9 µM | MIC [17]: 3.49 µM (≈ 5 µg/mL)

SMILES: CC[C@H](C)[C@H](NC(=O)[C@H](CCCCN)NC(=O)[C@H](CCCCN)NC(=O)[C@H](Cc1ccccc1)NC(=O)[C@H](CC(C)C)NC(=O)[C@H](CCCCN)NC(=O)[C@H](Cc1c[nH]c2ccccc12)NC(=O)[C@@H](N)CCCCN)C(=O)N1CCC[C@H]1C(=O)N[C@@H](CCCCN)C(=O)N[C@@H](Cc1ccccc1)C(=O)N[C@@H](CC(C)C)C(=O)N[C@@H](Cc1cnc[nH]1)C(=O)N[C@@H](CO)C(=O)N[C@@H](C)C(=O)N[C@@H](CCCCN)C(=O)N[C@@H](CCCCN)C(=O)N[C@@H](Cc1ccccc1)C(N)=O [KWKLFKKIPKFLHSAKKF]
MIC [23]: 0.78 µM (≈ 1.77 µg/mL) | MIC [18]: 1.56 µM (≈ 3.55 µg/mL) | MIC [20]: 3.12 µM (≈ 7.11 µg/mL) | MIC [21]: 6.25 µM (≈ 14.2 µg/mL) | MIC [22]: 3.12 µM (≈ 7.11 µg/mL) | MIC [24]: 0.78 µM (≈ 1.77 µg/mL)

Now from value to compound:

MIC [1]: 3.18 µM (≈ 8 µg/mL) | MIC [2]: 6.37 µM (≈ 16 µg/mL) | MIC [3]: 6.37 µM (≈ 16 µg/mL) | MIC [4]: 6.37 µM (≈ 16 µg/mL)
SMILES: CC(C)C[C@H](NC(=O)[C@H](Cc1ccc(O)cc1)NC(=O)[C@H](C)NC(=O)[C@@H](NC(=O)[C@H](CC(C)C)NC(=O)[C@H](C)NC(=O)[C@H](C)NC(=O)[C@H](CCCCN)NC(=O)CNC(=O)[C@@H](NC(=O)[C@H](C)NC(=O)[C@H](CCCCN)NC(=O)CNC(=O)[C@@H](NC(=O)[C@H](C)NC(=O)[C@H](C)NC(=O)[C@H](C)NC(=O)[C@H](CCCCN)NC(=O)[C@H](CCCCN)NC(=O)[C@H](Cc1ccccc1)NC(=O)[C@H](Cc1ccccc1)NC(=O)[C@H](CO)NC(=O)CNC(=O)[C@H](Cc1c[nH]c2ccccc12)NC(=O)CN)C(C)C)C(C)C)[C@@H](C)O)C(=O)O [GWGSFFKKAAAVGKAVGKAALTAYL]

MIC [5]: ≥ 50 µM | MIC [6]: ≥ 50 µM | MIC [7]: 12.5 µM (≈ 32.1 µg/mL) | MIC (Escherichia coli 4530): ≥ 50 µM | MIC (Escherichia coli 170): 1.56 µM (≈ 4 µg/mL) | MIC (Acinetobacter baumannii): 4.42 µM (≈ 11.3 µg/mL) | MIC [8]: 6.25 µM (≈ 16 µg/mL) | MIC [9]: 3.12 µM (≈ 8.01 µg/mL) | MIC [10]: ≥ 50 µM
SMILES: CC[C@H](C)[C@H](N)C(=O)N[C@@H](CCCCN)C(=O)N[C@@H](CO)C(=O)N[C@H](C(=O)N[C@@H](C)C(=O)N[C@@H](CO)C(=O)N[C@@H](CCCCN)C(=O)N[C@H](C(=O)N[C@@H](C)C(=O)N[C@@H](CC(N)=O)C(=O)N[C@H](C(=O)N[C@H](C(=O)N[C@@H](CCC(N)=O)C(=O)N[C@@H](CCCCN)C(=O)N[C@@H](CC(C)C)C(=O)N[C@@H](CCCCN)C(=O)N[C@@H](CCCN=C(N)N)C(=O)N[C@@H](CCCCN)C(=O)N[C@@H](C)C(=O)N[C@@H](CCCCN)C(=O)N[C@@H](CC(N)=O)C(=O)N[C@@H](C)C(=O)N[C@H](C(=O)N[C@@H](C)C(=O)O)C(C)C)C(C)C)[C@@H](C)O)C(C)C)[C@@H](C)CC [IKSIASKVANTVQKLKRKAKNAVA]

MIC (Proteus vulgaris): 3.12 µM (≈ 6.56 µg/mL) | MIC [18]: 0.78 µM (≈ 1.64 µg/mL) | MIC [19]: 0.78 µM (≈ 1.64 µg/mL) | MIC [20]: 3.12 µM (≈ 6.56 µg/mL) | MIC [21]: 3.12 µM (≈ 6.56 µg/mL) | MIC [22]: 1.56 µM (≈ 3.28 µg/mL)
SMILES: CC[C@H](C)[C@H](NC(=O)[C@H](CCCCN)NC(=O)[C@H](CCCCN)NC(=O)[C@H](Cc1ccccc1)NC(=O)[C@H](Cc1c[nH]c2ccccc12)NC(=O)[C@@H](N)CCCCN)C(=O)N1CCC[C@H]1C(=O)N[C@@H](CCCCN)C(=O)N[C@@H](Cc1ccccc1)C(=O)N[C@@H](CC(C)C)C(=O)N[C@@H](Cc1cnc[nH]1)C(=O)N[C@@H](CC(C)C)C(=O)N[C@@H](CC(C)C)C(=O)N[C@@H](CCCCN)C(=O)N[C@@H](CCCCN)C(=O)N[C@@H](Cc1ccccc1)C(N)=O [KWFKKIPKFLHLLKKF]

— DBAASP
